These results are taken from patent publication US11564908B2, “Beta-lactam compounds or salts thereof for use in long-acting prevention or treatment of a glucose metabolism disorder” (GLYCOLYSIS BIOMED CO., LTD., priority 2019, dated 2023).

Marks after values point to notes of the source that are not given here.

For series [1], the system named is db/db mice. Description: Plasma biochemical parameters (AST, ALT, BUN, Cr, HbA1c). Conditions: daily 3 weeks then stopped, DMH 0.41, MER 0.205, CEFT 0.82, PEN 1.473, TIE 0.41 mg/g bw i.p., MET 0.3 mg/g bw oral, week 9.
Experimental: Inflammatory markers such as serum aspartate aminotransferase (AST), alanine aminotransferase (ALT), blood urea nitrogen (BUN), creatinine (Cr), and hemoglobin A1c (HbA1c) were measured using a BMC-Hitachi 717 chemistry auto analyzer.
In series [2] the test system is db/db mice. Description: Histopathological assessment (H&E stain). The class given is in vivo. An excerpt: For histopathological assessment, all mice were sacrificed by 95% CO2 asphyxiation at the end of the study period. Their brain, liver, kidney, pancreas, and epididymal fat pads were removed, fixed in 10% phosphate-buffered formalin, and embedded in paraffin. Tissues embedded in paraffin were cut into 4-μm-thick sections that were then stained with hematoxylin-eosin (i.e., H&E stain).

Series [3] relates to db/db mice. The series can be described thus: Food and water intake of mice. The class given is in vivo. To be noted: daily 3 weeks then stopped, DMH 0.41, MER 0.205, CEFT 0.82, PEN 1.473, TIE 0.41 mg/g bw i.p., MET 0.3 mg/g bw oral, average. On the procedure:
Four to five weeks old db/db mice (BKS.Cg-Dock7^m+/+Lepr^db/JNarl) and m/m mice (BKS.Cg-Dock7^m+/Dock7^m+) were obtained from National Laboratory Animal Center ([…], Taiwan). […] PMI Nutrition International, Brentwood, Mo.) and water ad libitum. […] The mouse body weight (bw) and the amounts of water and food intake were recorded weekly for the entire study period.

Series [4] has as its system db/db mice. Description: Oral glucose tolerance test (OGTT). The class given is in vivo. To be noted: for OGTT glucose concentration versus G8 group (FIG. 6A): week 6 (medication stopped for 3 weeks), time points of 30 min and 60 min; for OGTT glucose concentration versus G8 group (FIG. 6B): week 9 (medication stopped for 6 weeks), time points of 30 min, 60 min and 120 min. On the procedure: Blood was sampled from the tail vein, and FPG levels were measured and recorded as the basic blood glucose levels. […] The total area under the curve (AUC) in OGTT was plotted and calculated by the Area Under Coordinates Program (StatsToDo Server, Department of Obstetrics and Gynecology, Chinese University of Hong Kong).

Where [5] appears, read: 0.41 mg/g bw/day i.p. for 3 weeks (Example 1).

For the compound `C[C@@H](O)[C@H]1C(=O)N2C(C(=O)O)=C(S[C@@H]3CN[C@H](C(=O)N(C)C)C3)[C@H](C)[C@H]12` [MER, meropenem hydrate], in the series on db/db mice [1], the ALT was 89 ± 5^bcd U/L and the BUN is given as 43 ± 2^bd mg/dL.
For the compound `CN(C)C(=N)N=C(N)N` [Met, metformin], the “Kidney histological changes (tubular degeneration and necrosis, mineralization deposition, hyaline cast)” value in the series with db/db mice [2] (Example 2, end of study) is “more apparent in metformin-treated mice than in ertapenem-treated mice”.
`CC1(C)S[C@@H]2[C@H](NC(=O)Cc3ccccc3)C(=O)N2[C@H]1C(=O)O` [PEN, penicillin G]: the Diet intake in the series with db/db mice [3] is 4.0 ± 0.9^a g/mice/day. Also, in the series on db/db mice [4], the “OGTT glucose concentration versus G8 group (FIG. 6A)” value is listed as “significantly lower than that in the G8 group” and the “OGTT glucose concentration versus G8 group (FIG. 6B)” value is recorded as “significantly lower than that in the G8 group”.
Take `C[C@@H](O)[C@H]1C(=O)N2C(C(=O)O)=C(S[C@@H]3CN[C@H](C(=O)Nc4cccc(C(=O)O)c4)C3)[C@H](C)[C@H]12` [DMH, ertapenem]: the BUN in the series on db/db mice [1] is 44 ± 2^d mg/dL. Further, in the series with db/db mice [2] (setting [5]), the “Injuries in brain, liver, kidney, pancreas and epididymal fat pads” value was “no significant injuries”; the “Severity and incidence of liver glycogen storage versus DB group” value is on record as “slighter than that in the DB group”. Also, in the series on db/db mice [2] (Example 2, end of study), the “Injuries in liver, kidney, pancreas and epididymal fat pads” value is given as “No significant injuries”; the “Kidney histological changes (tubular degeneration and necrosis, mineralization deposition, hyaline cast)” value is given as “more apparent in metformin-treated mice than in ertapenem-treated mice”. Besides, in the series on db/db mice [4] (0.41 mg/g bw/day i.p., week 3, time points of 90 min and 120 min), the “OGTT glucose concentration versus DB group (FIG. 1)” value is reported as “significantly lower than that in the DB group”. Further, the “Effect on oral glucose tolerance after treatment stopped” value with db/db mice [4] (treatment had been stopped for 10 weeks (Example 2)) is listed as “effectively increased the oral glucose tolerance”. In the series with db/db mice [4], the “OGTT glucose concentration versus G8 group (FIG. 6A)” value is “significantly lower than that in the G8 group” and the “OGTT glucose concentration versus G8 group (FIG. 6B)” value is listed as “significantly lower than that in the G8 group”.
